{
  "source": "paper PMC8371461",
  "about": "(Frontiers in Pharmacology, 2021)",
  "key": {"ACVR1": {"molecular_target": "T1, ACVR1 (Homo sapiens, UniProt Q04771)", "T1 construct": "purchased DiscoverX (KINOMEscan)", "assay": "kinome scan", "type": "binding", "settings": "10 µM"}, "MLK1": {"molecular_target": "T2, MLK1 (Homo sapiens, UniProt P80192)", "T2 construct": "purchased DiscoverX (KINOMEscan)", "assay": "kinome scan", "type": "binding", "settings": "10 µM"}, "PIK3CA(C420R)": {"molecular_target": "T3, PIK3CA(C420R) (Homo sapiens, UniProt P42336, C420R)", "T3 construct": "purchased DiscoverX (KINOMEscan)", "T3 sequence (P42336 whole entry C420R)": "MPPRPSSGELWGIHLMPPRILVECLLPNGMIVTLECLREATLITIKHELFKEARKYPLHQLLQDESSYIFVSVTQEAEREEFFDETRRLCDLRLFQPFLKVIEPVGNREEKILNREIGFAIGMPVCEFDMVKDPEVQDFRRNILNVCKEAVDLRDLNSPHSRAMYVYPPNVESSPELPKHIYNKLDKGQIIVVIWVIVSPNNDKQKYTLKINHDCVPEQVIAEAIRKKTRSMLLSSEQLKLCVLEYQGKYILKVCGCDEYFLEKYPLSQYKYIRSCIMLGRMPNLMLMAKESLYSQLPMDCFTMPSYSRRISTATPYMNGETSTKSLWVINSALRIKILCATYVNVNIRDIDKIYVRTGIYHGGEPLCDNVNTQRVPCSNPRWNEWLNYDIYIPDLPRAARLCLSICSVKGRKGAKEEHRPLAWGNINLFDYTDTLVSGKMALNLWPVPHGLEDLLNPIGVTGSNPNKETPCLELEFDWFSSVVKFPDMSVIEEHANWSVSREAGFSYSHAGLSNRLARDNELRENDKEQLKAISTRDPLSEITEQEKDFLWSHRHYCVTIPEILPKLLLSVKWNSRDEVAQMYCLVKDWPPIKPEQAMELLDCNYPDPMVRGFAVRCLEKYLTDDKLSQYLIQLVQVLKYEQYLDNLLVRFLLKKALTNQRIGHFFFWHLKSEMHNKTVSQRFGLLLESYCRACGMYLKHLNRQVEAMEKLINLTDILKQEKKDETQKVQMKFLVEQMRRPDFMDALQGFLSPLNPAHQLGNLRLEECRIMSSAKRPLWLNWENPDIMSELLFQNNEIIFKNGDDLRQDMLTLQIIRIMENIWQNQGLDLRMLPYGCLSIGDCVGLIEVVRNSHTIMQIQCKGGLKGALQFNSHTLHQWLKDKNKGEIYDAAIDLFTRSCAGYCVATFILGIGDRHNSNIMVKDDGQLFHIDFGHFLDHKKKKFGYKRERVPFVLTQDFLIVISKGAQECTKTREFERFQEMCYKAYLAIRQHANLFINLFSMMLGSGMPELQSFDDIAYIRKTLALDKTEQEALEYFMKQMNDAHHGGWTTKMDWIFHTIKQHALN", "assay": "kinome scan", "type": "binding", "settings": "10 µM"}, "FLT3": {"molecular_target": "T4, FLT3 (Homo sapiens, UniProt P36888)", "T4 construct": "purchased DiscoverX (KINOMEscan)", "T4 sequence (P36888 27-993)": "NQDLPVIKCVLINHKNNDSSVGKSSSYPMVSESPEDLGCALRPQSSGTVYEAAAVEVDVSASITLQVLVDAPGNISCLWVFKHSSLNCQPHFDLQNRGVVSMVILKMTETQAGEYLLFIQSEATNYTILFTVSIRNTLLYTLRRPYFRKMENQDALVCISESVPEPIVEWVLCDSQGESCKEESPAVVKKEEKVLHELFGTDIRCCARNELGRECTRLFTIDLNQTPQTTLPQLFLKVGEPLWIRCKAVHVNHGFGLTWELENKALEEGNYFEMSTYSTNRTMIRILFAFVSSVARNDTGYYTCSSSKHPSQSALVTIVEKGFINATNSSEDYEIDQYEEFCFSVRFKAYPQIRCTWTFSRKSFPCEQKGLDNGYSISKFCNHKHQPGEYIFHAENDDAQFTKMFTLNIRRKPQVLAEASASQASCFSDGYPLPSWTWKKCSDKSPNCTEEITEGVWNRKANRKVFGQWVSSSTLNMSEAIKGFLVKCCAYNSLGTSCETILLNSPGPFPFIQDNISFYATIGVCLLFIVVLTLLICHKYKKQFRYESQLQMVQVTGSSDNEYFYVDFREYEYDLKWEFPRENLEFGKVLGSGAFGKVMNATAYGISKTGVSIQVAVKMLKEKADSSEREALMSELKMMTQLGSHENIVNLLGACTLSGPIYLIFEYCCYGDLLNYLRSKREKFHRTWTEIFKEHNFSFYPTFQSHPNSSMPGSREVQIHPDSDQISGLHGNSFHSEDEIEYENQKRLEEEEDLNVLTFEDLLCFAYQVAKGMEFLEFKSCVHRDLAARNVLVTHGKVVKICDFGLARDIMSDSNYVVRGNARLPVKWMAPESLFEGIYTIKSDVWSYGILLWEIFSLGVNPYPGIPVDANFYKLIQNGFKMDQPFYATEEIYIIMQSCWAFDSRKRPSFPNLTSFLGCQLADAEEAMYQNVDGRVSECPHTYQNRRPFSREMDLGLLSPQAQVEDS", "assay": "kinome scan", "type": "binding"}, "BIKE": {"molecular_target": "T5, BIKE (Homo sapiens, UniProt Q9NSY1)", "T5 construct": "purchased DiscoverX (KINOMEscan)", "assay": "kinome scan", "type": "binding", "settings": "10 µM"}, "MEK3": {"molecular_target": "T6, MEK3 (Homo sapiens, UniProt P46734)", "T6 construct": "purchased DiscoverX (KINOMEscan)", "T6 sequence (P46734 whole entry)": "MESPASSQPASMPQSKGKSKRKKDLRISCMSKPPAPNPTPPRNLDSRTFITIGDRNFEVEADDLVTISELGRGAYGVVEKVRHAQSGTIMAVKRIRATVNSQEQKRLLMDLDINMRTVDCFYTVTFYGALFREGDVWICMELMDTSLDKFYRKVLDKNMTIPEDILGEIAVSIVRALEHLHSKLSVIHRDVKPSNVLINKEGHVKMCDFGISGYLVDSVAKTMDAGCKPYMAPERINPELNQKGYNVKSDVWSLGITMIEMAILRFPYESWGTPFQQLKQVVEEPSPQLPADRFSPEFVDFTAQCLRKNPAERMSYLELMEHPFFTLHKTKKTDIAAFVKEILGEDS", "assay": "kinome scan", "type": "binding", "settings": "10 µM"}, "FRK": {"molecular_target": "T7, FRK (Homo sapiens, UniProt P42685)", "T7 construct": "purchased DiscoverX (KINOMEscan)", "assay": "kinome scan", "type": "binding", "settings": "10 µM"}, "GSK3B": {"molecular_target": "T8, GSK3B (Homo sapiens, UniProt P49841)", "T8 construct": "purchased DiscoverX (KINOMEscan)", "T8 sequence (P49841 whole entry)": "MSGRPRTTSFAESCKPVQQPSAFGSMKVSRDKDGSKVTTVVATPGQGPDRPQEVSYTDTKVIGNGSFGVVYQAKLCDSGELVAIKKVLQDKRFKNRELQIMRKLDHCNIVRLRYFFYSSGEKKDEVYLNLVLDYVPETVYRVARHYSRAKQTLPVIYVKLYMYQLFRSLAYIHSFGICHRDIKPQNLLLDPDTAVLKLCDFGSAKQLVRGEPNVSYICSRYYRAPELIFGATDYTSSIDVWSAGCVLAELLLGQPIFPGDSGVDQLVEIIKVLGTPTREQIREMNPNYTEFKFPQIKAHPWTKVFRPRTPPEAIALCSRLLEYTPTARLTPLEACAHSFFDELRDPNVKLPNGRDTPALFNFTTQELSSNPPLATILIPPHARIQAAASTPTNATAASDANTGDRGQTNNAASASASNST", "assay": "kinome scan", "type": "binding", "settings": "10 µM"}, "PRKD1": {"molecular_target": "T9, PRKD1 (Homo sapiens, UniProt Q15139)", "T9 construct": "purchased DiscoverX (KINOMEscan)", "T9 sequence (Q15139 whole entry)": "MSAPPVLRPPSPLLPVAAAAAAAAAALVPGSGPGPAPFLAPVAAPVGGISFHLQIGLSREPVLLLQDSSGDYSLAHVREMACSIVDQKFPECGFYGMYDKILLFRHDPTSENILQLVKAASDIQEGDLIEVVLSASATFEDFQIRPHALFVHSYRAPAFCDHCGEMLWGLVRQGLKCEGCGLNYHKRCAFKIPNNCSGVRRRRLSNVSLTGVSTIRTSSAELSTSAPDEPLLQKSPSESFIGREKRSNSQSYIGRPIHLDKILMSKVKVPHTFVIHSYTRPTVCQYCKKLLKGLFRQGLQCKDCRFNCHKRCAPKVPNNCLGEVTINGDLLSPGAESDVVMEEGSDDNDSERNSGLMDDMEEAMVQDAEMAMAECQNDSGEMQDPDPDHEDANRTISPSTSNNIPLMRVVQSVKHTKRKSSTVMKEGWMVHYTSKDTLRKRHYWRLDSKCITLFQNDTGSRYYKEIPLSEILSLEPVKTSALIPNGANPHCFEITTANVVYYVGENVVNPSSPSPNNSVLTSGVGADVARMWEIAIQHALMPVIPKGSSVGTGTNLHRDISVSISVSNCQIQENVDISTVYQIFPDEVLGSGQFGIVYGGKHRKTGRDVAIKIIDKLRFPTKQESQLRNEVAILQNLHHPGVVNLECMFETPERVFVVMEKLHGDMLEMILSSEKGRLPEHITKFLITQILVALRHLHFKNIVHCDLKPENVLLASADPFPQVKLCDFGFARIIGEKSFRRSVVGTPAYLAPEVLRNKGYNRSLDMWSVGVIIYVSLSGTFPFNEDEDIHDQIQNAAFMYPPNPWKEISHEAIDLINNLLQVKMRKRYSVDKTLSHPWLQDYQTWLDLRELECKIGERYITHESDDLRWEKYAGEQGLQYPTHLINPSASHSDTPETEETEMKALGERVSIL", "assay": "kinome scan", "type": "binding", "settings": "10 µM"}, "GAK": {"molecular_target": "T10, GAK (Homo sapiens, UniProt O14976)", "T10 construct": "T7 phage fusion (kinase-tagged phage); purchased DiscoverX; host or cells: BL21-derived E. coli (T7 phage)", "T10 sequence (O14976 1-1311)": "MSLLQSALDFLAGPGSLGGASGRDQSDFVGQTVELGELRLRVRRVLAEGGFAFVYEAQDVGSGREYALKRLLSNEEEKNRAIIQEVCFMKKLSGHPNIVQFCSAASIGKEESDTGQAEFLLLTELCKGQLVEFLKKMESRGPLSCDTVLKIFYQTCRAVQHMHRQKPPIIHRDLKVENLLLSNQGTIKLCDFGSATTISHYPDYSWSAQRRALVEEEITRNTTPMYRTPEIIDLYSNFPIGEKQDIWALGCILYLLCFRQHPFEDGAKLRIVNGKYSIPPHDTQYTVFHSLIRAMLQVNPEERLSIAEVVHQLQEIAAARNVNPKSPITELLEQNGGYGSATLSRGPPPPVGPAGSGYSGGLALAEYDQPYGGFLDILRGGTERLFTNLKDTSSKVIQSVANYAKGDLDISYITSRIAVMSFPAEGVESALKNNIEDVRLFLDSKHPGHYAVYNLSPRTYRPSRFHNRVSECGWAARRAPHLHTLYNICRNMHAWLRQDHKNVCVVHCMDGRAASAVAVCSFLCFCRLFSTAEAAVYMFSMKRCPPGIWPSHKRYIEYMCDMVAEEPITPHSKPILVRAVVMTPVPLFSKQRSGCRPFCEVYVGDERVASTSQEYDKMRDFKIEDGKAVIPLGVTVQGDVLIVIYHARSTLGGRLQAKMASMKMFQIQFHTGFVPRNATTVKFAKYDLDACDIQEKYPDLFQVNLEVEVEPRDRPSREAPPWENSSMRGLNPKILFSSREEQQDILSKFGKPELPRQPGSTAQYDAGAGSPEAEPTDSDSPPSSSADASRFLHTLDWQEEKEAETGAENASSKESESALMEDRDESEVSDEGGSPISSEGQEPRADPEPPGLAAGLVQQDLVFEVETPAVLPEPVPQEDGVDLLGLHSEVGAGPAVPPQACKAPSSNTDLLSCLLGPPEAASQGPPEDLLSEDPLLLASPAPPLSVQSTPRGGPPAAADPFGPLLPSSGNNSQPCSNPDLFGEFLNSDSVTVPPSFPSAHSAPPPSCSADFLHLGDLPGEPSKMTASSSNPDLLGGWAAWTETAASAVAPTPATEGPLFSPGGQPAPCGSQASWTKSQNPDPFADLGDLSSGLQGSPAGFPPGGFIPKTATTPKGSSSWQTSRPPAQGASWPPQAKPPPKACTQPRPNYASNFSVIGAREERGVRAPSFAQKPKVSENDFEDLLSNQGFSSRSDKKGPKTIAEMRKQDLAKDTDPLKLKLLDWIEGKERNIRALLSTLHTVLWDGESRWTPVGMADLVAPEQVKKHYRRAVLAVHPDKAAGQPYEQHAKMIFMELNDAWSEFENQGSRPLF", "assay": "kinome scan", "type": "binding"}, "DCAMKL3": {"molecular_target": "T11, DCAMKL3 (Homo sapiens, UniProt Q9C098)", "T11 construct": "purchased DiscoverX (KINOMEscan)", "assay": "kinome scan", "type": "binding", "settings": "10 µM"}, "PKNB(M.tuberculosis)": {"molecular_target": "T12, PKNB(M.tuberculosis) (Mycobacterium tuberculosis, UniProt P9WI81)", "T12 construct": "purchased DiscoverX (KINOMEscan)", "assay": "kinome scan", "type": "binding", "settings": "10 µM"}, "CSNK1E": {"molecular_target": "T13, CSNK1E (Homo sapiens, UniProt P49674)", "T13 construct": "purchased DiscoverX (KINOMEscan)", "T13 sequence (P49674 whole entry)": "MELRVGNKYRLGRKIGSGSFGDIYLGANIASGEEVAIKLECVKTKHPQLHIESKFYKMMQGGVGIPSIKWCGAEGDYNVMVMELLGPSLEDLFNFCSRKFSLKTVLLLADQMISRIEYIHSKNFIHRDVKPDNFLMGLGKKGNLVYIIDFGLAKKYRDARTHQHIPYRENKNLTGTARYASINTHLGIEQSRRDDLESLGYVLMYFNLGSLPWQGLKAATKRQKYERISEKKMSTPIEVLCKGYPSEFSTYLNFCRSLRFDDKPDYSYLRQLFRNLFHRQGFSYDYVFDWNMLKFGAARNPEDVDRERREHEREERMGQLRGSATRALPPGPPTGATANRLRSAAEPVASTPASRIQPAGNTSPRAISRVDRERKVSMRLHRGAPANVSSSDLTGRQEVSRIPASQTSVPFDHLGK", "assay": "kinome scan", "type": "binding", "settings": "10 µM"}, "CGR8 PSC": {"test_system": "CGR8 PSC", "assay": "ATP quantification (ATPlite), cell proliferation/viability", "type": "cell-based, mouse", "settings": "PSC exposed for three days", "protocol": "Cell viability was measured in PSC by using the ATPlite Luminescence Assay System (Perkin Elmer). PSC were plated in gelatine-coated 96-well plates at a density of 10,000 cells-cm^2 in their standard medium. At different time points, the substrate for emission of luminescence in the presence of ATP was added according to the manufacturer’s instructions. Luminescence was measured with the SpectraMax L Microplate Luminometer (Molecular Devices).\nThe effects of the drug on proliferation or differentiation was next investigated in quantitative assays."}, "PSC": {"test_system": "PSC", "assay": "LC3B positive autophagosomes, immunofluorescent staining", "type": "cell-based, mouse", "settings": "10 µM, three days", "experimental": "Cells were fixed with PBS containing 0.5% of para-formaldehyde for 15 min at room temperature. After three washing steps in PBS, cells were permeabilized with PBS containing 0.3% of Triton X-100 (Sigma) for 1 h at room temperature. After washing with PBS three times, cells were incubated overnight with the anti-LC3B antibody in PBS with 1% bovine serum albumin (Sigma) at 4°C. After three washing steps in PBS, cells were incubated with the fluorescent secondary antibody for 90 min at 4°C in PBS with 1% bovine serum albumin. They were then incubated with […] DAPI (Thermofisher) in PBS for 15 min. After washing with PBS, cells were rinsed once in water prior to mounting in the FluorSave reagent (Millipore).\nDepending of these transitory environmental conditions, autophagy can either promote survival or apoptosis ([Degtyarev et al., 2008]). PIK/AKT pathway inhibition has been reported to increase cell autophagy ([Palmieri et al., 2017]). More specifically, PIP4K2C has been described as a down-regulator of autophagy ([Sharma et al., 2019])."}, "MST4": {"molecular_target": "T14, MST4 (Homo sapiens, UniProt Q9P289)", "T14 construct": "purchased DiscoverX (KINOMEscan)", "assay": "kinome scan", "type": "binding", "settings": "10 µM"}, "CAMK1": {"molecular_target": "T15, CAMK1 (Homo sapiens, UniProt Q14012)", "T15 construct": "purchased DiscoverX (KINOMEscan)", "T15 sequence (Q14012 whole entry)": "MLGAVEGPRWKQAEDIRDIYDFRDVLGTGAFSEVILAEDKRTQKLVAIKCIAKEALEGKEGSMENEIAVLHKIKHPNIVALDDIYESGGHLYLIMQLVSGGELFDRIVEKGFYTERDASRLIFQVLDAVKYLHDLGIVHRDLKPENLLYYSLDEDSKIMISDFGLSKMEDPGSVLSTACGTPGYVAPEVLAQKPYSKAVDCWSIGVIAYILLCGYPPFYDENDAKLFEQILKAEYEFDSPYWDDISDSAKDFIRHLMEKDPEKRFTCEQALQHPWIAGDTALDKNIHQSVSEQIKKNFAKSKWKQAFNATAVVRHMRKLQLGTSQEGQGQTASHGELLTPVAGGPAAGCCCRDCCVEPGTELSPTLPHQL", "assay": "kinome scan", "type": "binding", "settings": "10 µM"}, "ACVR2A": {"molecular_target": "T16, ACVR2A (Homo sapiens, UniProt P27037)", "T16 construct": "purchased DiscoverX (KINOMEscan)", "assay": "kinome scan", "type": "binding", "settings": "10 µM"}, "NDR1": {"molecular_target": "T17, NDR1 (Homo sapiens, UniProt Q15208)", "T17 construct": "purchased DiscoverX (KINOMEscan)", "assay": "kinome scan", "type": "binding", "settings": "10 µM"}, "OSR1": {"molecular_target": "T18, OSR1 (Homo sapiens, UniProt O95747)", "T18 construct": "purchased DiscoverX (KINOMEscan)", "T18 sequence (O95747 whole entry)": "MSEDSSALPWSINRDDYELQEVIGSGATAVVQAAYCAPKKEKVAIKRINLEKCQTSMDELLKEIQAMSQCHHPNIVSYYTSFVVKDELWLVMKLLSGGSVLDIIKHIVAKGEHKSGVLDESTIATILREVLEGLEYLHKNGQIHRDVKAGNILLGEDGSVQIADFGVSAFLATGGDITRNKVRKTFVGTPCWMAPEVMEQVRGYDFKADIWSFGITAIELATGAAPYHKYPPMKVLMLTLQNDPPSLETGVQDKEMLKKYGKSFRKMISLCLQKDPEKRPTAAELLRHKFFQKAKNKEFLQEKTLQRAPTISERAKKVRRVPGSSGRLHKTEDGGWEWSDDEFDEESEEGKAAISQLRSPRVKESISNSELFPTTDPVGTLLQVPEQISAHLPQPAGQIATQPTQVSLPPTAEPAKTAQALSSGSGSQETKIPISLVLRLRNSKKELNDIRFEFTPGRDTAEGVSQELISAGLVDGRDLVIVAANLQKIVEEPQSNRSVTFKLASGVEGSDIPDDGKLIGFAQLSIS", "assay": "kinome scan", "type": "binding", "settings": "10 µM"}},
  "data": [
    {"smiles": "Nc1ccc(N=Nc2ccccc2)c(N)n1", "note": "[phenazopyridine, 2,6-diamino-3-(phenylazo)pyridine]", "values": [
      {"measurement": "kinase inhibition", "setting": "ACVR1", "value": 100},
      {"measurement": "kinase inhibition", "setting": "MLK1", "value": 87},
      {"measurement": "kinase inhibition", "setting": "PIK3CA(C420R)", "value": 100},
      {"measurement": "remaining binding (% of control)", "setting": "FLT3; 10 µM", "value": 25},
      {"measurement": "remaining binding at 10 µM", "setting": "FLT3; read-out: % Of control", "value": 25, "unit": "%"},
      {"measurement": "kinase inhibition", "setting": "BIKE", "value": 99},
      {"measurement": "kinase inhibition", "setting": "MEK3", "value": 54},
      {"measurement": "remaining binding (% of control)", "setting": "FRK", "value": 100},
      {"measurement": "kinase inhibition", "setting": "GSK3B", "value": 100},
      {"measurement": "kinase inhibition", "setting": "PRKD1", "value": 100},
      {"measurement": "remaining binding (% of control)", "setting": "GAK; 10 µM", "value": 16},
      {"measurement": "remaining binding at 10 µM", "setting": "GAK; read-out: % Of control", "value": 16, "unit": "%"},
      {"measurement": "kinase inhibition", "setting": "DCAMKL3", "value": 92},
      {"measurement": "remaining binding (% of control)", "setting": "PKNB(M.tuberculosis)", "value": 96},
      {"measurement": "kinase inhibition", "setting": "CSNK1E", "value": 44},
      {"measurement": "ATP levels", "setting": "CGR8 PSC", "value": "unchanged"},
      {"measurement": "number of LC3B-positive autophagosomes", "setting": "PSC", "value": "increased"},
      {"measurement": "kinase inhibition", "setting": "MST4", "value": 96},
      {"measurement": "kinase inhibition", "setting": "CAMK1", "value": 100},
      {"measurement": "kinase inhibition", "setting": "ACVR2A", "value": 94},
      {"measurement": "kinase inhibition", "setting": "NDR1", "value": 100},
      {"measurement": "kinase inhibition", "setting": "OSR1", "value": 100}
    ]}
  ]
}
